Measurements reported in patent publication US20260207735A1, “Pharmaceutical compositions, vaccines and their uses in the prevention or treatment of a persistent infection or of cancer” (Universitätsmedizin der Johannes Gutenberg-Universität Mainz, priority 2018, published 2026).

What was measured:
CD8+ T cell response = details: following transcutaneous immunization with imiquimod in mice; cited from earlier work
influenza = details: combined with a vaccine, compared to the vaccine alone; cited from earlier work
[1] = tested on: CD11c positive Dendritic cells (DCs); assay: TLR7 mediated activation of splenic dendritic cells in vitro (CD40, CD80, CD86 by flow cytometry); assay type: cell-based, C57BL/6 mice; details: R-848 10 μg/ml, 24 h incubation; NAC 5 mM
Experimental: CD11c positive Dendritic cells (DCs) were purified from spleens from C57BL/6 mice) as described in Weber M et al. (2014) and activated as indicated with the TLR7/8 agonist R-848 (10 μg/ml), anthralin (dithranol), N-acetyl cysteine (NAC 5 mM) or left untreated in Iscoves's medium+5% FCS (Michael Weber et al., “Donor and Host B Cell-Derived IL-10 Contributes to Suppression of Graft-Versus-Host Disease.,” European Journal of Immunology 44, no. 6 (June 2014): 1857-65, doi:10.1002/eji.201344081).
After 24 h incubation, the cells were harvested, labeled with specific mAbs and analyzed by flow cytometry for the activation markers CD40, CD80 and CD86 gating on live (propidium iodide negative, CD11c/MHC class II positive DCs).
Spleens of C57BL6/J wildtype mice were harvested, picked and digested for 45 min with type 2 collagenase (50 U/ml from Worcester, Pappenheim, Germany) and stopped by adding 2 mM EDTA (from Sigma-Aldrich, Taufkirchen, Germany). After a hypotonic lysis step DCs were isolated using CD11c MicroBeads UltraPure (Miltenyi Biotec, Germany) following the manufacturer's instruction. 2×10^5 CD11c^+ DCs/well were plated in 96 well plates and cultivated for either 24 or 48 h in the presence of TLR7 ligand R-848 (10 μg/ml) and/or different concentrations of anthralin (solved in DMSO). […] Following cytokines were quantified using CBA technology: IL-1b; IL-6; IL-10; IL-12; IL-23; TNF-α.

[2] = tested on: peptide-specific CD8+ T cells; assay: Imiquimod based transcutaneous immunization (TCI), primary T cell response (tetramer flow cytometry, in vivo cytolytic activity, IFN-γ ELISpot); design: species or system C57BL/6 mice; details: for T cell activation (primary T cell response): 0.0625% in Vaseline on ear skin 24 h before TCI (IMI-Sol + OVA peptides), read-out day 7
[3] = tested on: peptide-specific CD8+ T cells; assay: Imiquimod based TCI, memory immune response (secondary T cell response), Day 35; assay type: in vivo, C57BL/6 mice; details: dithranol 0.0625% in Vaseline 24 h before TCI; read-out Day 35
Experimental: C57BL/6 mice (n=3-8 per group) were immunized by TCI, performed as described in FIG. 1 (A) The frequency of peptide-specific CD8^+ T cells was assessed on Day 35 via flow cytometry. (B) The in vivo cytolytic activity was analyzed on Day 35, 20 h after transfer of peptide-loaded splenocytes. (C) IFN-γ production of splenocytes on Day 35 post the indicated treatments. Splenocytes were re-stimulated with the indicated peptides for 24 h before harvest and analysis by ELISpot assay. * Significance by One Way ANOVA with Bonferroni Posttest analysis; p<0.05 (*). […]
For detecting in vivo cytolytic activity, splenocytes of syngenic wildtype mice were labeled with different amounts of 5,6-carboxyfluorescein diacetate succinimidyl ester (CFSE; Invitrogen, Carlsbad, USA) resulting in a CFSE^low and a CFSE^high population. […] Specific lysis was evaluated as following: Specific lysis (%)=100×(1−([…]). All analyses were performed with a LSRII Flow Cytometer and FACSDiva Software (Becton Dickinson, Franklin Lakes, USA). […]

[4] = α-Tocopherol 600 U/kg i.p. 1 h before anthralin and/or TCI, day 7

Oc1cc2ccccc2c2ccccc12 [9-phenanthrol]
generation of a CD8+ T cell response (CD8+ T cell response): enhances the generation of a CD8+ T cell response

CC(C)Cn1cnc2c(N)nc3ccccc3c21 [Imiquimod, imiquimod]
survival of mice (influenza): improve survival of mice

CC(=O)N[C@@H](CS)C(=O)O [NAC, N-acetyl cysteine]
TLR7 mediated activation of DCs (CD40, CD80, CD86) [1]: activation phenotype is restored

O=C1c2cccc(O)c2C(=O)c2c(O)cccc21 [danthron]
T cell activation (primary T cell response) [2]: no impact on T cell activation

O=C1c2c(O)cccc2Cc2cccc(O)c21 [dithranol, 1,8-dihydroxy-9-anthrone]
T cell activation (primary T cell response) [2]: synergistic effect on T cell activation on CD8 positive as well as CD4 positive T cells | site dependence of synergistic T cell activation ([2]; TCI on both ears or only one ear, day 7): required at the same site (ear) to mediate synergistic T cell activation | T cell activation including memory T cell formation (secondary T cell response) [3]: synergistic effect on T cell activation on CD8 positive as well as CD4 positive T cells including memory T cell formation | TLR7 mediated activation of DCs (CD40, CD80, CD86) [1]: suppresses the TLR7 mediated activation of DCs in vitro

Cc1c(C)c2c(c(C)c1O)CC[C@@](C)(CCC[C@H](C)CCC[C@H](C)CCCC(C)C)O2 [α-Tocopherol]
CTL frequency (peptide-specific CD8+ T cells) [2, 4]: without affecting CTL frequency | in vivo cytolytic activity induced by dithranol (anthralin) TCI [2, 4]: antagonizes the enhanced cytolytic activity induced by dithranol (anthralin) TCI
